Test results: patent US20130274338A1, “PHARMACEUTICAL COMPOSITIONS COMPRISING DGLA, 15-OHEPA, AND/OR 15-HETRE AND METHODS OF REDUCING SEBUM PRODUCTION USING SAME” (priority 2012, published 2013)
≈ marks a conversion by molar mass, not a printed value.

Key:
P. acnes = test: Agar dilution method, growth of P. acnes and MIC, single compounds; assay type: cell-based, Propionibacterium acnes; design: key to Growth Index Plate 1 / Growth Index Plate 2 / Growth Index Plate 3 / Growth Index Avg: +++: confluent growth (comparable to control); ++: less confluent growth; +: marked reduction in growth to multiple tiny, single colonies; −: no growth present; conditions: for MIC: Cutibacterium acnes, compound alone, MIC = concentration with marked reduction (+) of growth, read-out: MIC (mg/mL) as per P-11-0007 or P-11-0008 Addendum A
Protocol: Several compounds including fatty acids such as DGLA, 15-OHEPA, and 15-HETrE were tested to determine their capacity to inhibit the growth of P. acnes. In an exemplary method, an agar dilution method was used to determine the minimum inhibitory concentration (MIC) of each tested compound. Briefly, the agar dilution method involved preparing a series of concentrations of each compound (e.g., nicotinamide, benzoyl peroxide, adapalene, metronidazole, DGLA, 15-OHEPA, and 15-HETrE) in a Reinforced Clostridial Agar (RCA) media that facilitates growth of P. acnes under anaerobic conditions. An inoculum of P. acnes was prepared by incubation of P. acnes for approximately seven days at 35-37° C. to achieve a ≧1.0 OD600 inoculum of P. acnes in RCM broth. A portion of this inoculum was then added to the surface of each plate as a 10 μL spot and incubated at 35-37° C. for 72 hours or more. Growth of P. acnes was then observed and compared to control plates in which no compound has been added, and positive inhibition plates prepared with erythromycin. […] The growth of P. acnes in the presence of nicotinamide, benzoyl peroxide, adapalene, metronidazole, DGLA, 15-OHEPA, and 15-HETrE was determined with varying concentrations of the compound (see, Table 2). Next, the MIC was determined as the concentration at which a marked reduction (+) occurs in the appearance of growth on the test plate (as per Clinical and Laboratory Standards Institute M11-A7).

[1] = system: immortalized sebocyte cell line; test: Sebocyte proliferation: viability (M.T.T. test) and morphology after 72 hours; assay type: cell-based, human
From the text: In an embodiment, the pharmacodynamics of a composition comprising DGLA, 15-OHEPA, or 15-HETrE as disclosed herein may be examined using a model of sebum production. In an embodiment, the effects of a composition comprising DGLA, 15-OHEPA, or 15-HETrE as disclosed herein on the proliferation and/or differentiation of sebocytes serves as a model for the pharmacodynamics on sebum production (see, e.g., U.S. Patent Application Publication No. US 2010/0278948, the contents of which are incorporated by reference). In an exemplary method, primary sebocytes are isolated from skin tissue (e.g., human scalp tissue). The isolated primary sebocytes are then immortalized, and the resulting cell line is divided into discrete cultures. Discrete cultures can then be treated with various concentrations of a composition comprising DGLA, 15-OHEPA, or 15-HETrE as disclosed herein. For comparison, a negative control (e.g., a culture of an immortalized sebocyte cell line left untreated) and/or a positive control (e.g., treatment of an immortalized sebocyte cell line with a compound known to inhibit sebocyte growth such as isotretinoin) can be maintained alongside of the test cultures. In an embodiment, a pharmacodynamic assay is maintained for an amount of time suitable to observe differences (if any) between the various immortalized sebocyte cell cultures, for example less than about 24 hours, about 24 hours, about 48 hours, about 72 hours, about 96 hours, about 120 hours, about 144 hours, more than about 144 hours, etc. The effect of treating an immortalized sebocyte cell culture with a given composition or compound can be determined by quantifying, for example and without limitation, the viability of the cultures (e.g., the percent viability and/or mean percent viability). The effect of treating an immortalized sebocyte cell culture with a given composition or compound can be determined by qualitatively assessing, for example and without limitation, morphological changes in the culture. In an embodiment, changes in the morphology of the culture may be classified as: no change (e.g., “normal” population), reduced growth (e.g., “growth reduction”), toxic changes (e.g., “toxicity”), and/or cell death (e.g., “cell mortality”).
The compounds tested in Example 1 were tested to determine the capacity of each to reduce sebum production. In an exemplary method, each compound's ability to inhibit the growth of an immortalized sebocyte cell line was determined.
Primary sebocytes were isolated from sebaceous glands obtained from dissections of human scalp tissue. The primary sebocytes were immortalized and the resulting cell culture was used to study the effects of DGLA and 15-HETrE on sebocyte cell proliferation. Individual cell cultures were treated with eight concentrations of DGLA (1.00 μM, 4.00 μM, […], 37.00 μM, 111.00 μM, 333.00 μM, 1000.00 μM, and 3000.00 μM), and eight concentrations of 15-HETrE (0.50 1.00 4.00 10.00 40.00 110.00 330.00 1000.00). As a positive control, individual cell cultures were treated with eight concentrations of Isotretinoin. Negative control cultures were also maintained. After 72 hours, the mean percent viability for each of the cultures was determined by colorimetry (M.T.T. test) according to J. Mosmann, J. Immunol. Meth., vol. 65, pp. 55-63 (1983), and morphological differences were also observed at that time (see Table 9).

[2] = system: immortalized sebocyte cell line; test: as above; assay type: cell-based; conditions: Homo sapiens

CCCCCC(O)/C=C/C=C\C/C=C\CCCCCCC(=O)O (stereo not drawn) [15-HETrE, 15-hydroxy-eicosa-8(Z),11(Z),13(E)-trienoic acid]
effect on growth of P. acnes on its own (P. acnes; 0.01 mg/ml): no effect | Growth Index Avg (P. acnes; compound at 0.00001 mg/mL): +++ | Growth Index Plate 1 (P. acnes; compound at 0.00001 mg/mL): +++ | Growth Index Plate 2 (P. acnes; compound at 0.00001 mg/mL): +++ | Growth Index Plate 3 (P. acnes; compound at 0.00001 mg/mL): +++ | Growth Index Avg (P. acnes; compound at 0.0001 mg/mL): +++ | Growth Index Plate 1 (P. acnes; compound at 0.0001 mg/mL): +++ | Growth Index Plate 2 (P. acnes; compound at 0.0001 mg/mL): +++ | Growth Index Plate 3 (P. acnes; compound at 0.0001 mg/mL): +++ | Growth Index Avg (P. acnes; compound at 0.001 mg/mL): +++ | Growth Index Plate 1 (P. acnes; compound at 0.001 mg/mL): +++ | Growth Index Plate 2 (P. acnes; compound at 0.001 mg/mL): +++ | Growth Index Plate 3 (P. acnes; compound at 0.001 mg/mL): +++ | Growth Index Avg (P. acnes; compound at 0.01 mg/mL): ++ | Growth Index Plate 1 (P. acnes; compound at 0.01 mg/mL): ++ | Growth Index Plate 2 (P. acnes; compound at 0.01 mg/mL): +++ | Growth Index Plate 3 (P. acnes; compound at 0.01 mg/mL): ++ | Growth Index Avg (P. acnes; compound at 0.05 mg/mL): − | Growth Index Plate 1 (P. acnes; compound at 0.05 mg/mL): − | Growth Index Plate 2 (P. acnes; compound at 0.05 mg/mL): − | Growth Index Plate 3 (P. acnes; compound at 0.05 mg/mL): − | Mean % Viability ([1]; 0.5 µM): 85% | Mean % Viability ([1]; 1 µM): 77% | Mean % Viability ([1]; 4 µM): 52% | Morphological Observations ([1]; 4.00 μM, 72 hours): toxicity | Mean % Viability ([1]; 10 µM): 18% | Morphological Observations ([1]; 10.00 μM (10 μM), 72 hours): toxicity | Mean % Viability ([1]; 40 µM): 1% | Mean % Viability ([1]; 110 µM): 1% | Mean % Viability ([1]; 330 µM): 0% | Mean % Viability ([1]; 1000 µM): 0%

CCC=CCC(O)C=CC=CCC=CCC=CCCCC(=O)O (stereo not drawn) [15-OHEPA, 15-Hydroxy-eicosa-5,8,11,13,17-pentaenoic acid]
effect on growth of P. acnes on its own (P. acnes; 0.05 mg/mL): no effect | MIC (P. acnes): 50 to 75 µg/mL (≈ 157 to 236 µM) | Growth Index Avg (P. acnes; compound at 0.010 mg/mL): +++ | Growth Index Plate 1 (P. acnes; compound at 0.010 mg/mL): +++ | Growth Index Plate 2 (P. acnes; compound at 0.010 mg/mL): +++ | Growth Index Plate 3 (P. acnes; compound at 0.010 mg/mL): +++ | Growth Index Avg (P. acnes; compound at 0.025 mg/mL): +++ | Growth Index Plate 1 (P. acnes; compound at 0.025 mg/mL): +++ | Growth Index Plate 2 (P. acnes; compound at 0.025 mg/mL): +++ | Growth Index Plate 3 (P. acnes; compound at 0.025 mg/mL): +++ | Growth Index Avg (P. acnes; compound at 0.050 mg/mL): +++ | Growth Index Plate 1 (P. acnes; compound at 0.050 mg/mL): +++ | Growth Index Plate 2 (P. acnes; compound at 0.050 mg/mL): +++ | Growth Index Plate 3 (P. acnes; compound at 0.050 mg/mL): +++ | Growth Index Avg (P. acnes; compound at 0.075 mg/mL): + | Growth Index Plate 1 (P. acnes; compound at 0.075 mg/mL): + | Growth Index Plate 2 (P. acnes; compound at 0.075 mg/mL): + | Growth Index Plate 3 (P. acnes; compound at 0.075 mg/mL): + | Growth Index Avg (P. acnes; compound at 0.1 mg/mL): − | Growth Index Plate 1 (P. acnes; compound at 0.1 mg/mL): − | Growth Index Plate 2 (P. acnes; compound at 0.1 mg/mL): − | Growth Index Plate 3 (P. acnes; compound at 0.1 mg/mL): −

CCCCC/C=C\C/C=C\C/C=C\CCCCCCC(=O)O [DGLA, cis-8,11,14-eicosatrienoic acid]
effect on growth of P. acnes on its own (P. acnes; 0.4 mg/ml): no effect | MIC (P. acnes): 400 to 600 µg/mL (≈ 1310 to 1960 µM) | Growth Index Avg (P. acnes; compound at 0.2 mg/mL): +++ | Growth Index Plate 1 (P. acnes; compound at 0.2 mg/mL): +++ | Growth Index Plate 2 (P. acnes; compound at 0.2 mg/mL): +++ | Growth Index Plate 3 (P. acnes; compound at 0.2 mg/mL): +++ | Growth Index Avg (P. acnes; compound at 0.4 mg/mL): +++ | Growth Index Plate 1 (P. acnes; compound at 0.4 mg/mL): +++ | Growth Index Plate 2 (P. acnes; compound at 0.4 mg/mL): +++ | Growth Index Plate 3 (P. acnes; compound at 0.4 mg/mL): +++ | Growth Index Avg (P. acnes; compound at 0.6 mg/mL): + | Growth Index Plate 1 (P. acnes; compound at 0.6 mg/mL): ++ | Growth Index Plate 2 (P. acnes; compound at 0.6 mg/mL): − | Growth Index Plate 3 (P. acnes; compound at 0.6 mg/mL): ++ | Growth Index Avg (P. acnes; compound at 0.8 mg/mL): + | Growth Index Plate 1 (P. acnes; compound at 0.8 mg/mL): ++ | Growth Index Plate 2 (P. acnes; compound at 0.8 mg/mL): + | Growth Index Plate 3 (P. acnes; compound at 0.8 mg/mL): + | Growth Index Avg (P. acnes; compound at 1.0 mg/mL): + | Growth Index Plate 1 (P. acnes; compound at 1.0 mg/mL): + | Growth Index Plate 2 (P. acnes; compound at 1.0 mg/mL): + | Growth Index Plate 3 (P. acnes; compound at 1.0 mg/mL): + | viability at 12 µM [2]: 63% | viability at 1 µM ([1]; Homo sapiens, 1.00 μM, 72 hours): 107% | viability at 4 µM ([1]; Homo sapiens, 4.00 μM, 72 hours): 97% | viability at 37 µM ([1]; Homo sapiens, 37.00 μM, 72 hours): 1% | viability at 111 µM ([1]; Homo sapiens, 111.00 μM, 72 hours): 2% | viability at 333 µM ([1]; Homo sapiens, 333.00 μM, 72 hours): 1% | viability at 1000 µM ([1]; Homo sapiens, 1000.00 μM, 72 hours): 1% | viability at 3000 µM ([1]; Homo sapiens, 3000.00 μM, 72 hours): 3%

CC[C@H]1OC(=O)[C@H](C)[C@@H](O[C@H]2C[C@@](C)(OC)[C@@H](O)[C@H](C)O2)[C@H](C)[C@@H](O[C@@H]2O[C@H](C)C[C@H](N(C)C)[C@H]2O)[C@](C)(O)C[C@@H](C)C(=O)[C@H](C)[C@@H](O)[C@]1(C)O [Erythromycin]
MIC (P. acnes): 0.01 to 0.05 µg/mL (≈ 0.0136 to 0.0681 µM)

CC1=C(/C=C/C(C)=C/C=C/C(C)=C\C(=O)O)C(C)(C)CCC1 [Isotretinoin]
Morphological Observations ([1]; 1.11 μM, 72 hours): toxicity | viability at 0.005 µM ([1]; Homo sapiens, 0.005 μM, 72 hours): 105% | viability at 0.014 µM ([1]; Homo sapiens, 0.014 μM, 72 hours): 110% | viability at 0.041 µM ([1]; Homo sapiens, 0.041 μM, 72 hours): 103% | viability at 0.123 µM ([1]; Homo sapiens, 0.123 μM, 72 hours): 96% | viability at 0.37 µM ([1]; Homo sapiens, 0.370 μM, 72 hours): 88% | viability at 1.11 µM ([1]; Homo sapiens, 1.11 μM, 72 hours): 76% | viability at 3.33 µM ([1]; Homo sapiens, 3.33 μM, 72 hours): 8% | viability at 10 µM ([1]; Homo sapiens, 10.00 μM (10 μM), 72 hours): 1%
